Here are results for 14 test systems from the supplement of paper PMC8920030.

A value given as a limit tells only on which side of the number the result lay.

What all share (details): growth mode: biofilm, 24 h; exposure time: 24 h
Compound in experiment [1]: T1, CCC(C)CCCC(=O)N[C@@H](CCN)C(=O)N[C@H](C(=O)N[C@@H](CCN)C(=O)N[C@H]1CCNC(=O)[C@H]([C@@H](C)O)NC(=O)[C@H](CCN)NC(=O)[C@H](CCN)NC(=O)[C@H](CC(C)C)NC(=O)[C@@H](CC(C)C)NC(=O)[C@H](CCN)NC1=O)[C@@H](C)O [colistin]
Put plainly: minimum concentration eradicating biofilm below detection limit (MCK-E); higher = more biofilm tolerance. The protocol:
(§1)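 Clinical P. aeruginosa isolates were grown as static biofilms for 24 h at 37 °C in LB in half-area 96-well plates, then exposed for 24 h to colistin at 1, 4, 16, 64, 256 or […]. Surviving CFU were counted by spotting serial dilutions. MCK is the lowest tested concentration giving the stated log reduction in CFU versus an untreated control; '>1024' means the reduction was not reached at the top dose, and 1 is the lowest dose tested (≤1).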

Compound in experiment [2]: T2, NC[C@H]1O[C@H](O[C@H]2[C@H](O)[C@@H](O[C@H]3O[C@H](CO)[C@@H](O)[C@H](N)[C@H]3O)[C@H](N)C[C@@H]2N)[C@H](N)C[C@@H]1O [tobramycin]
The description is as above. Here is the method:
(§2)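 Clinical P. aeruginosa isolates were grown as static biofilms for 24 h at 37 °C in LB in half-area 96-well plates, then exposed for 24 h to tobramycin at 1, 4, 16, 64, 256 or […]. Surviving CFU were counted by spotting serial dilutions. MCK is the lowest tested concentration giving the stated log reduction in CFU versus an untreated control; '>1024' means the reduction was not reached at the top dose, and 1 is the lowest dose tested (≤1).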

Compound in experiment [3]: T1, colistin
Put plainly: minimum concentration of killing, 1-log CFU reduction of biofilm (MCK90); higher = more biofilm tolerance. Here is the method:
as §1

Compound in experiment [4]: T1, colistin
Put plainly: minimum concentration of killing, 2-log CFU reduction of biofilm (MCK99); higher = more biofilm tolerance. The protocol:
as §1

Compound in experiment [5]: T2, tobramycin
Put plainly: minimum concentration of killing, 1-log CFU reduction of biofilm (MCK90); higher = more biofilm tolerance. Here is the method:
as §2

Compound in experiment [6]: T2, tobramycin
In words: minimum concentration of killing, 2-log CFU reduction of biofilm (MCK99); higher = more biofilm tolerance. The protocol:
as §2

Compound in experiment [7]: T1, colistin
In words: minimum concentration of killing, 4-log CFU reduction of biofilm (MCK99.99); higher = more biofilm tolerance. Here is the method:
as §1

Compound in experiment [8]: T2, tobramycin
The experiment is described as above. The protocol:
as §2

In the case of “Pseudomonas aeruginosa clinical isolate CH2582”, the “minimum concentration eradicating biofilm below detection limit” value in experiment [1] was found to be 1020 µg/mL; in experiment [2], 64 µg/mL. Moreover, the “minimum concentration of killing” value in experiment [3] was at most 1 µg/mL; in experiment [4], 256 µg/mL; in experiment [5], at most 1 µg/mL; in experiment [6], 4 µg/mL; in experiment [7], 256 µg/mL; in experiment [8], 64 µg/mL.
In the case of “Pseudomonas aeruginosa clinical isolate CH2597”, the “minimum concentration eradicating biofilm below detection limit” value in experiment [1] and in experiment [2] was 256 µg/mL each time. The “minimum concentration of killing” value in experiment [3], in experiment [4], in experiment [5], in experiment [6], in experiment [7] and in experiment [8] was 256 µg/mL each time.
With “Pseudomonas aeruginosa clinical isolate CH2598”, the “minimum concentration eradicating biofilm below detection limit” value in experiment [1] and in experiment [2] was 256 µg/mL each time. Also, the “minimum concentration of killing” value in experiment [3] stood at 256 µg/mL; in experiment [4], 256 µg/mL; in experiment [5] it was 4 µg/mL; in experiment [6] it was 16 µg/mL; in experiment [7], 256 µg/mL; in experiment [8], 256 µg/mL.
In the case of “Pseudomonas aeruginosa clinical isolate CH2658”, the “minimum concentration eradicating biofilm below detection limit” value in experiment [1] and in experiment [2] was 256 µg/mL in each case. In addition, the “minimum concentration of killing” value in experiment [3] came out at 64 µg/mL; in experiment [4], 256 µg/mL; in experiment [5] it was 4 µg/mL; in experiment [6] it was 16 µg/mL; in experiment [7], 256 µg/mL; in experiment [8], 64 µg/mL.
As to “Pseudomonas aeruginosa clinical isolate CH2660”, the “minimum concentration eradicating biofilm below detection limit” value in experiment [1] and in experiment [2] was 256 µg/mL throughout. Further, the “minimum concentration of killing” value in experiment [3] turned out to be 64 µg/mL; in experiment [4], 256 µg/mL; in experiment [5] it was 4 µg/mL; in experiment [6], 64 µg/mL; in experiment [7] it was 256 µg/mL; in experiment [8] it was 64 µg/mL.
Turning to “Pseudomonas aeruginosa clinical isolate CH2672”, the “minimum concentration eradicating biofilm below detection limit” value in experiment [1] was 256 µg/mL; in experiment [2], over 1020 µg/mL. In addition, the “minimum concentration of killing” value in experiment [3] came out at 256 µg/mL; in experiment [4], 256 µg/mL; in experiment [5], 16 µg/mL; in experiment [6] it was 64 µg/mL; in experiment [7], 256 µg/mL; in experiment [8], 256 µg/mL.
Consider “Pseudomonas aeruginosa clinical isolate CH2677”, for which the “minimum concentration eradicating biofilm below detection limit” value is 256 µg/mL in experiment [1] and over 1020 µg/mL in experiment [2]. Further, the “minimum concentration of killing” value in experiment [3] came out at 64 µg/mL; in experiment [4], 64 µg/mL; in experiment [5], 256 µg/mL; in experiment [6], 1020 µg/mL; in experiment [7], 256 µg/mL; in experiment [8], 1020 µg/mL.
Take “Pseudomonas aeruginosa clinical isolate CH5550”: the “minimum concentration eradicating biofilm below detection limit” value in experiment [1] is over 1020 µg/mL; in experiment [2] it was 1020 µg/mL. Further, the “minimum concentration of killing” value in experiment [3] is 256 µg/mL; in experiment [4], 256 µg/mL; in experiment [5], 16 µg/mL; in experiment [6], 16 µg/mL; in experiment [7], over 1020 µg/mL; in experiment [8], 1020 µg/mL.
As for “Pseudomonas aeruginosa clinical isolate CH5596”, the “minimum concentration eradicating biofilm below detection limit” value in experiment [1] and in experiment [2] was 256 µg/mL throughout. Moreover, the “minimum concentration of killing” value in experiment [3] came to 64 µg/mL; in experiment [4], 64 µg/mL; in experiment [5] it was 4 µg/mL; in experiment [6], 4 µg/mL; in experiment [7], 256 µg/mL; in experiment [8], 64 µg/mL.
Take “Pseudomonas aeruginosa clinical isolate CH5597”: the “minimum concentration eradicating biofilm below detection limit” value in experiment [1] is 64 µg/mL; in experiment [2], 256 µg/mL. Further, the “minimum concentration of killing” value in experiment [3] was 64 µg/mL; in experiment [4], 64 µg/mL; in experiment [5] it was at most 1 µg/mL; in experiment [6], 64 µg/mL; in experiment [7], 64 µg/mL; in experiment [8], 256 µg/mL.
As to “Pseudomonas aeruginosa clinical isolate CH5621”, the “minimum concentration eradicating biofilm below detection limit” value was 256 µg/mL in experiment [1] and over 1020 µg/mL in experiment [2]. In addition, the “minimum concentration of killing” value in experiment [3] was 256 µg/mL; in experiment [4], 256 µg/mL; in experiment [5] it was 64 µg/mL; in experiment [6], 1020 µg/mL; in experiment [7], 256 µg/mL; in experiment [8] it was over 1020 µg/mL.
As for “Pseudomonas aeruginosa clinical isolate CH5638”, the “minimum concentration eradicating biofilm below detection limit” value stood at 256 µg/mL in experiment [1] and 1020 µg/mL in experiment [2]. Also, the “minimum concentration of killing” value in experiment [3] was 64 µg/mL; in experiment [4], 256 µg/mL; in experiment [5] it was 16 µg/mL; in experiment [6], 16 µg/mL; in experiment [7] it was 256 µg/mL; in experiment [8], 1020 µg/mL.
“Pseudomonas aeruginosa clinical isolate ESP001”: the “minimum concentration eradicating biofilm below detection limit” value in experiment [1] amounted to 256 µg/mL; in experiment [2] it was 1020 µg/mL. Besides, the “minimum concentration of killing” value in experiment [3] amounted to 64 µg/mL; in experiment [4] it was 64 µg/mL; in experiment [5], 16 µg/mL; in experiment [6], 256 µg/mL; in experiment [7], 256 µg/mL; in experiment [8], 256 µg/mL.
“Pseudomonas aeruginosa clinical isolate ESP002”: the “minimum concentration eradicating biofilm below detection limit” value in experiment [1] and in experiment [2] was 256 µg/mL throughout. The “minimum concentration of killing” value in experiment [3] amounted to 4 µg/mL; in experiment [4] it was 64 µg/mL; in experiment [5], 256 µg/mL; in experiment [6], 256 µg/mL; in experiment [7] it was 256 µg/mL; in experiment [8] it was 256 µg/mL.
